Source: PubChem BioAssay (NCI)
“And” between values parts separate entries of the source, which are not always exact repeats. Identical values can stand only once.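 Compound exposure: 48 hours, 5 concentrations, 96-well plates. Here, GI50 denotes the concentration required for 50% inhibition of growth. TGI denotes the concentration required for complete inhibition of growth.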

Key:
Experiment in all cases: inhibition of tumour cell growth, NCI panel, 48 h
UACC-62 melanoma = system: UACC-62 melanoma
SK-MEL-2 melanoma = system: SK-MEL-2 melanoma
EKVX NSCLC = system: EKVX NSCLC
T-47D breast = system: T-47D breast
COLO 205 colon = system: COLO 205 colon
A549 NSCLC = system: A549 NSCLC
A498 renal = system: A498 renal
HCT-116 colon = system: HCT-116 colon
NCI-H226 lung = system: NCI-H226 lung

| Compound | TGI (UACC-62 melanoma) | GI50 (SK-MEL-2 melanoma) | TGI (SK-MEL-2 melanoma) | GI50 (EKVX NSCLC) | TGI (EKVX NSCLC) | GI50 (T-47D breast) | TGI (T-47D breast) | GI50 (COLO 205 colon) | TGI (COLO 205 colon) | TGI (A549 NSCLC) | GI50 (A498 renal) | TGI (A498 renal) | TGI (HCT-116 colon) | TGI (NCI-H226 lung) | GI50 (NCI-H226 lung) |
| --- | --- | --- | --- | --- | --- | --- | --- | --- | --- | --- | --- | --- | --- | --- | --- |
| CC[C@@]1(O)C(=O)OCc2c1cc1n(c2=O)Cc2c-1nc1ccccc1c2C=Nc1ccccc1N[C@@H]1c2cc3c(cc2[C@@H](c2cc(OC)c(O)c(OC)c2)[C@H]2C(=O)OC[C@@H]21)OCO3 | 13.1 µM | 7.14 µM and 1.62 µM | 36.3 µM and 3.86 µM | 3.77 µM and 0.791 µM | > 44.5 µM | 0.00836 µM | 0.163 µM | 8.86 µM and 0.929 µM | 24.8 µM and > 10.6 µM | 7.62 µM | 0.325 µM and 0.142 µM | 1.79 µM and 0.68 µM | 4.48 µM and 2.5 µM | 3.05 µM | – |
| Cc1nc(Cc2n[nH]c(C)n2)n[nH]1 | > 100 µM | – | > 100 µM | – | > 100 µM | – | – | – | > 100 µM | > 100 µM | – | – | > 100 µM | – | – |
| CN(/N=C\c1ccc2ccccc2c1)C1=NCCCN1 | 34.5 µM | – | 35 µM | – | 53.8 µM | – | > 100 µM | – | 25.3 µM | 24.7 µM | – | 28.8 µM | 28.9 µM | 40.4 µM | – |
| Clc1ccc(C2=NCON=C2c2ccc(Cl)cc2)cc1 | 37.8 µM | – | 46.1 µM | – | 45.3 µM | – | 22.8 µM | – | 29.9 µM | > 100 µM | – | – | 31.3 µM | 32.7 µM | – |
| COc1ccc(N=Nc2c(N)nn3c(SC)c(C#N)c(N)nc23)cc1 | 20.4 µM | – | 7.12 µM | – | 21.3 µM | – | 4.3 µM | – | 26.4 µM | 36.9 µM | – | 28.5 µM | 28.4 µM | 40.7 µM | – |
| CCOC(=O)C1CCC(=O)N1C(=O)c1ccc(Cl)cc1 (stereo not given) | > 100 µM | – | – | – | > 100 µM | – | > 100 µM | – | – | > 100 µM | – | > 100 µM | > 100 µM | > 100 µM | – |
| CCC(=C/[C@H](C)C/C=C/C(C)=C/[C@@H](C)C(=O)[C@@H](C)[C@H](O)[C@@H](C)CC)/C=C/[C@H]1CC=CC(=O)O1 | 0.00667 µM | – | < 0.0012 µM | – | 12 µM and 14.3 µM | – | 1.88 µM | – | 0.0428 µM | 6.32 µM and 13.5 µM | – | < 0.0012 µM | 0.002 µM | – | < 0.0012 µM |
| C=CCNC1=C2C[C@@H](C)C[C@@H](OC)[C@H](OC(=O)CCN(C)C)[C@H](C)/C=C(\C)[C@@H](OC(N)=O)[C@H](OC)/C=C\C=C(/C)C(=O)NC(=CC1=O)C2=O | 11.9 µM | – | 12.2 µM | – | 22.9 µM | – | 12.8 µM | – | 1.23 µM | 17.4 µM | – | 21.4 µM | 16.5 µM | – | – |
| CCC1CN2CCc3c([nH]c4ccccc34)[C@@](C(=O)OC)(c3cc4c(cc3OC)N(C)C3C(O)(C(=O)OC)C(C(=O)OC)C5(CC)C=CCN6CCC43C65)C[C@@H](C2)[C@@H]1C(C)(C)C (stereo not given in full) | > 10 µM | – | > 4.02 µM | – | > 10 µM | – | > 10 µM | – | > 6.1 µM | > 10 µM | – | 1.12 µM | 2.85 µM | 0.902 µM | – |
| CCOC(=O)c1cc2c3c(cc(OC)c2[nH]1)N(C(=O)OCC)CC3 | > 100 µM | – | > 100 µM | – | > 100 µM | – | > 100 µM | – | > 100 µM | > 100 µM | – | > 100 µM | > 100 µM | > 100 µM | – |
| CC[C@]1(Cc2ccc(OC)c(OC)c2)C=[N+]([O-])O[C@H](OC2CCCC2(c2ccccc2)c2ccccc2)[C@@H]1OC(=O)C(C)(C)C (stereo not given in full) | 17.4 µM | – | 7.66 µM | – | 22.3 µM | – | 7.04 µM | – | 7.78 µM | > 36.6 µM | – | – | 4.58 µM | 12.5 µM | – |
| COc1cc2c(cc1OC)C(=O)N(c1ccc(OCCN3CCCC3)cc1)C2=O | > 100 µM | – | > 100 µM | – | > 100 µM | – | > 100 µM | – | > 100 µM | > 100 µM | – | > 100 µM | > 100 µM | > 100 µM | – |
| CCOC(=O)c1c(-c2ccccc2)c(C)cn1C | > 10 µM | – | > 10 µM | – | > 10 µM | – | – | – | – | > 10 µM | – | – | > 10 µM | > 10 µM | – |
| Cc1ccccc1Nc1nc2ccccc2nc1NS(=O)(=O)c1ccccc1 | > 100 µM | – | > 100 µM | – | > 100 µM | – | > 100 µM | – | > 100 µM | > 100 µM | – | – | > 100 µM | > 100 µM | – |
| NC(N)=NCCCC(NC(=O)c1c2ccccc2nc2ccccc12)C(=O)O (stereo not given) | > 100 µM | – | > 100 µM | – | > 100 µM | – | – | – | > 100 µM | > 100 µM | – | > 100 µM | > 100 µM | > 100 µM | – |
| c1ccc(Nc2nnc(CCCCCCCCc3nnc(Nc4ccccc4)o3)o2)cc1 | – | – | > 100 µM | – | > 100 µM | – | – | – | > 100 µM | > 100 µM | – | > 100 µM | > 100 µM | > 100 µM | – |
| CC[C@@]12CCC(=S)N(CCSc3ccccc3)[C@@H]1c1c(n(S(=O)(=O)c3ccc(OC)cc3)c3ccccc13)CC2 | > 100 µM | – | > 100 µM | – | > 100 µM | – | > 100 µM | – | > 100 µM | > 100 µM | – | > 100 µM | > 100 µM | > 100 µM | – |
| CCOC(=O)c1csc(NC(=O)C(C)N2CCOCC2)n1 (stereo not given) | > 100 µM | – | > 100 µM | – | > 100 µM | – | > 100 µM | – | > 100 µM | > 100 µM | – | > 100 µM | – | – | – |
| C[n+]1c2ccccc2c(C(=O)Nc2ccc(S(=O)(=O)Nc3ncccn3)cc2)c2ccccc21 | > 100 µM | – | > 100 µM | – | > 100 µM | – | > 100 µM | – | > 100 µM | > 100 µM | – | – | > 100 µM | > 100 µM | – |
| CC(=O)N1c2cc(N=NN(C)C)ccc2NC(=O)CC1C (stereo not given) | > 100 µM | – | > 100 µM | – | > 100 µM | – | > 100 µM | – | > 100 µM | > 100 µM | – | – | > 100 µM | > 100 µM | – |
| O=C(NCc1ccccc1Cl)c1c(O)c2ccccc2[nH]c1=O | – | – | – | – | > 100 µM | – | – | – | > 100 µM | > 100 µM | – | 30.4 µM | > 100 µM | > 100 µM | – |
| O=S(=O)(O)c1cc(O)c(N=Nc2ccc3ccccc3c2O)c2ccccc12 | 42.3 µM | – | > 100 µM | – | > 100 µM | – | 84.6 µM | – | > 100 µM | 52.6 µM | – | – | > 100 µM | 49.5 µM | – |
